Measurements published in ChEMBL document CHEMBL1154170, “2-Oxoglutarate analogue inhibitors of prolyl hydroxylase domain 2” (Bioorg Med Chem Lett, 2009).

Biological target: Egl nine homolog 1 (Homo sapiens, UniProt Q9GZT9)
Experiment: Inhibition of human PHD2 catalytic domain (181-426) by FRET assay

Chain of Egl nine homolog 1 (Q9GZT9 whole entry, the tested form may be a part): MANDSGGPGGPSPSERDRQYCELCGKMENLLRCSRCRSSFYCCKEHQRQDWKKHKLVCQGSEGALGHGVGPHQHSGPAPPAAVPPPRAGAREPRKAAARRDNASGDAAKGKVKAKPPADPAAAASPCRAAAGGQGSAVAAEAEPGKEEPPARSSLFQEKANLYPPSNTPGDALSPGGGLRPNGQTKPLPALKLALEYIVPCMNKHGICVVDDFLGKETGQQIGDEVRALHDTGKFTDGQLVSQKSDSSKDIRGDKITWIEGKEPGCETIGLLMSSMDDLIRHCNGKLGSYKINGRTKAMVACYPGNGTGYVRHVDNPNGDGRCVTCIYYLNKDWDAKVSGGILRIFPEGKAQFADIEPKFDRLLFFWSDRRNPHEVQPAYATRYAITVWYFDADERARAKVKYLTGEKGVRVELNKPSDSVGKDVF

SMILES | IC50 [µM]
COC(=O)CNC(=O)C(=O)O | > 1000
O=C(O)CCC(=O)NO | 94
O=C(O)CNC(=O)C(=O)C(=O)c1ccccc1 | 538
CCNC(=O)C(=O)CCC(=O)O | > 1000
O=C(O)CNC(=O)NO | > 1000
O=C(O)CNC(=O)CC(=O)c1ccccc1 | > 1000

Next, values leading:

IC50 [µM] | SMILES
> 1000 | CCOC(=O)CC(=O)NCC(=O)O
> 1000 | CCNC(=O)C(=O)NCC(=O)O
18 | CC(=O)CC(=O)CCC(=O)O [SUCCINYLACETONE]
95 | COC(=O)C(=O)NCC(=O)O
78 | CCOC(=O)C(=O)NCC(=O)O
398 | O=C(O)CNC(=O)CC(=O)O
> 1000 | CC(=O)CC(=O)NCC(=O)O
> 1000 | O=C(O)CNC(=O)C(=O)NCc1ccccc1
> 1000 | O=C(O)CN1CCNC(=O)C1=O
